US20240092761A1, “QUINAZOLINE COMPOUNDS AND METHODS OF USE” (IAMBIC THERAPEUTICS, INC., priority 2022, published 2024)
Where two headings read alike, the source gives them in different places.

Key:
[1] = biological target: CDK1/Cyclin B1 (Homo sapiens (Human), UniProt P06493); assay: CDK1/Cyclin B1 ADP-Glo Kinase Assay; format: biochemical; settings: 80 uM ATP
Outline: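 Luminescent ADP-Glo detection of ADP produced over 90 min at room temperature. Enzyme complex 4.917 nM, pre-exposed 30 min to inhibitor; ATP 80 µM (near Km 78.6 µM), substrate 0.75 µM, HEPES pH 7.5, 2% DMSO. Fractional velocity fitted to 4-parameter IC50 equation.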

[2] = biological target: CDK2/Cyclin E1 full length (Homo sapiens (Human), UniProt P24941); assay: CDK2/Cyclin E1 Full Length ADP-Glo Kinase Assay; format: biochemical; settings: 20 uM ATP, read-out: CDK2/ CyclinE1 IC50
Outline: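 ADP-Glo luminescence read-out of ADP formed by 0.328 nM wild-type full-length CDK2/Cyclin E1, 90 min at room temperature with 0.75 uM substrate and 20 uM ATP (Km 64.78 uM), after 30 min enzyme–inhibitor pre-incubation; 50 mM HEPES pH 7.5, 2% DMSO. Four-parameter IC50 fit.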

[3] = biological target: CDK4/Cyclin D1 (Homo sapiens (Human), UniProt P11802); assay: CDK4/Cyclin D1 Mobility Shift Assay (MSA); format: biochemical; settings: 0.2 mM ATP, read-out: CDK4/ CyclinD1 MSA IC50
Sequence of CDK4/Cyclin D1 (P11802 whole entry): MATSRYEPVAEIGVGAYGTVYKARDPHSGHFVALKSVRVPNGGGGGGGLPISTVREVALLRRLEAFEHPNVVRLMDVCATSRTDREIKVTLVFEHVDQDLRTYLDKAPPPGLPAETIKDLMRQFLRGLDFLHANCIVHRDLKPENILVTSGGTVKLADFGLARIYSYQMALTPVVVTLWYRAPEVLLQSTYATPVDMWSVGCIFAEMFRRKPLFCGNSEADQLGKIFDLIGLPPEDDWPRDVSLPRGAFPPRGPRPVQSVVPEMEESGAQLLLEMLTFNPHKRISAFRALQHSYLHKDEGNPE
Sequence of CDK4/Cyclin D1 (P24385 whole entry partner): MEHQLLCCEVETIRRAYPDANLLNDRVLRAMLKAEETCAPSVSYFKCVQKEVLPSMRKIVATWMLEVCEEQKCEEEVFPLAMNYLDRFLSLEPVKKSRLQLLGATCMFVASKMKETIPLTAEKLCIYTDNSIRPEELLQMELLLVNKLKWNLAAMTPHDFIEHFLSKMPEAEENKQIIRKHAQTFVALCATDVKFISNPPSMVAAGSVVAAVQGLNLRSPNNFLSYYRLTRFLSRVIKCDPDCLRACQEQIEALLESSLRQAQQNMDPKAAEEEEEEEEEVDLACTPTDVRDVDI
Description: CDK4/Cyclin D1 Mobility Shift Assay (MSA)
The purpose CDK4/Cyclin D1 assay is to evaluate the inhibition (% inhibition and IC50 values) in the presence of small molecule inhibitors by using a fluorescence based microfluidic mobility shift assay. CDK4/Cyclin D1 catalyzes the production of ADP from ATP that accompanies the phosphoryl transfer to the substrate peptide 5-FAM-Dyrktide (5-FAM-RRRFRPASPLRGPPK) (Perkin Elmer Peptide 34). The mobility shift assay (MSA) electrophoretically separates the fluorescently labelled peptides (substrate and phosphorylated product) following the kinase reaction. Both substrate and product are measured, and the ratio of these values is used to generate % conversion of substrate to product by the LabChip EZ Reader. Typical reaction solutions contained 2% DMSO (+/−inhibitor), 10 mM MgCl2, 1 mM EGTA, 0.05% BSA, 2 mM DTT, 0.2 mM ATP, 0.01% Brig-35, 1.5 uM 5-FAM-Dyrktide, 2.5 nM CDK4/Cyclin D1 in 50 mM HEPES buffer at pH 7.5. The reaction was initiated with the addition of substrate solution, following a 30-minute pre-incubation of enzyme and inhibitor at 22° C. in the reaction mix. The reaction was stopped after 180 minutes by the addition of 75 uL of 500 mM EDTA and measured on a Perkin Elmer EZ reader instrument. IC50 determinations were made from a plot of the fractional velocity as a function of inhibitor concentration fit to the 4 parameters IC50 equation.

[4] = biological target: CDK6/Cyclin D3 (Homo sapiens (Human), UniProt Q00534); assay: CDK6/Cyclin D3 ADP-Glo Kinase Assay; format: biochemical; settings: 100 uM ATP, read-out: CDK6/ CyclinD3 IC50
Sequence of CDK6/Cyclin D3 (Q00534 whole entry): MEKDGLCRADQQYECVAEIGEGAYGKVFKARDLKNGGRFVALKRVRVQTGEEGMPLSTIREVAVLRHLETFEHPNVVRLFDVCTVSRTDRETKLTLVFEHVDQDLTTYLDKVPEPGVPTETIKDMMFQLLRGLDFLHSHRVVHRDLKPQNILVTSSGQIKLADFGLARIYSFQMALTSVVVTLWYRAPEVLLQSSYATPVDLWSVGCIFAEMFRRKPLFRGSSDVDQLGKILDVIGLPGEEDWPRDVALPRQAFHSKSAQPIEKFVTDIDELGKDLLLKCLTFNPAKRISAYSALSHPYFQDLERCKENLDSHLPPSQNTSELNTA
Sequence of CDK6/Cyclin D3 (P30281 whole entry partner): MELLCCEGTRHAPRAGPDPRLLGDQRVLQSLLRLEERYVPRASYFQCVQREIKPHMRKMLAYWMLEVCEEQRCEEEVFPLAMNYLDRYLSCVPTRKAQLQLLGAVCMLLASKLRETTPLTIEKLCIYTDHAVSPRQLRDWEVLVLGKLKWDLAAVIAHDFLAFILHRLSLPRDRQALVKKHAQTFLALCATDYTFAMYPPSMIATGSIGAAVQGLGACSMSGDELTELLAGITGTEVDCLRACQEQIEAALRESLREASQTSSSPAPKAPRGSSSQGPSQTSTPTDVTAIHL
Outline: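 Luminescent ADP-Glo read-out of ADP produced, used to fit IC50 (4-parameter equation on fractional velocity against inhibitor concentration). Kinase reaction: enzyme and inhibitor together 30 min, then ATP-containing substrate added for 90 min, all at room temperature.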

[5] = test system: MCF-7 cells; assay: Cell Growth Inhibition, MCF-7 (CellTiterGlo, 6 days); format: cell-based; settings: MCF-7, 6-day treatment, CellTiterGlo 2.0
Outline: (§1)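 Compounds were run in half-log series, usually 10–10,000 nM, with 500 cells/well of OVCAR-3 or MCF-7 in RPMI plus 10% FBS. After a 6-day culture at 37 °C, viability was read by CellTiterGlo luminescence. Inhibition relative to control was fitted (four-parameter, variable slope) for IC50.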

[6] = test system: OVCAR-3 cells; assay: Cell Growth Inhibition, OVCAR-3 (CellTiterGlo, 6 days); format: cell-based; settings: OVCAR-3, 6-day treatment, CellTiterGlo 2.0
Outline: as §1

Sequence of CDK1/Cyclin B1 (P06493 whole entry): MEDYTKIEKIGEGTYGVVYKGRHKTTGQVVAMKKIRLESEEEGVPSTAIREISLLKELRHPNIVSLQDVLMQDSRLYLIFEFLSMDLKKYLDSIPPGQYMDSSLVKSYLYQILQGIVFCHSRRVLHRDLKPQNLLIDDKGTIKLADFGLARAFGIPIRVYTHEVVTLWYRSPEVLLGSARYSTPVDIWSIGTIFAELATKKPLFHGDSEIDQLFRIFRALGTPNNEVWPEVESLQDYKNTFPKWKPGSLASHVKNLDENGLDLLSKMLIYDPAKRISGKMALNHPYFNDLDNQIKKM
Sequence of CDK1/Cyclin B1 (P14635 whole entry partner): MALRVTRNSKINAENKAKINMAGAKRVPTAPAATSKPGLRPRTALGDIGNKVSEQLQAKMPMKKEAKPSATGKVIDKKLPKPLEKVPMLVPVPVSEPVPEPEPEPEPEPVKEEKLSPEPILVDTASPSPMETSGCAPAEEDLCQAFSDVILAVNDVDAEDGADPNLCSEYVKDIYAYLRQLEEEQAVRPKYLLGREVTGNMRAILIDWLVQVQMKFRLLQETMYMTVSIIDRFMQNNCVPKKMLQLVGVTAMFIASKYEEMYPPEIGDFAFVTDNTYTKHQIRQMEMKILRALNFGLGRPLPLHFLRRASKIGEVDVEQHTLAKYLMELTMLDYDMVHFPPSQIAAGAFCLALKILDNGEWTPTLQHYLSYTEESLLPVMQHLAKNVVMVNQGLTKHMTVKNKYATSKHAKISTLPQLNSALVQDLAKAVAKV

| IC50 [1] [nM] | IC50 [2] [nM] | IC50 [3] [nM] | IC50 [4] [nM] | IC50 ([5]; Homo sapiens, MCF7, 144 h) [nM] | IC50 ([6]; Homo sapiens, 144 h) [nM] | IC50 [5] [nM] | IC50 [6] [nM] | IC50 ([2]; given as number) [nM] | Compound |
| --- | --- | --- | --- | --- | --- | --- | --- | --- | --- |
| 500 to 2000 | < 200 | < 200 | < 200 | > 2000 | > 2000 |  |  |  | CS(=O)(=O)N1CCC(Nc2ncc3cccc(N4CCC(C#N)(C5CC5)C4)c3n2)CC1 (stereo not drawn) [Example 27, 3-cyclopropyl-1-(2-((1-(methylsulfonyl)piperidin-4-yl)amino)quinazolin-8-yl)pyrrolidine-3-carbonitrile] |
| > 2000 | > 2000 | < 200 | 200 to 500 | 200 to 500 | > 2000 |  |  |  | CN1CC2(CCN(c3cccc4cnc(Nc5ccc(N6CC7(COC7)C6)cn5)nc34)C2)C1 [Example 42, N-(5-(2-oxa-6-azaspiro[3.3]heptan-6-yl)pyridin-2-yl)-8-(2-methyl-2,6-diazaspiro[3.4]octan-6-yl)quinazolin-2-amine] |
| 200 to 500 | < 200 | < 200 | 200 to 500 | 500 to 2000 | 500 to 2000 |  |  |  | CS(=O)(=O)N1CCC(Nc2ncc3cccc(N4CC5(CCNC5)C4)c3n2)CC1 [Example 31, N-(1-(methylsulfonyl)piperidin-4-yl)-8-(2,6-diazaspiro[3.4]octan-2-yl)quinazolin-2-amine] |
| 500 to 2000 | < 200 | < 200 | < 200 | > 2000 | > 2000 |  |  |  | CS(=O)(=O)N1CCC(Nc2ncc3cccc(N4CCC5(CCC5(F)F)C4)c3n2)CC1 (stereo not drawn) [Example 37, 8-(1,1-difluoro-6-azaspiro[3.4]octan-6-yl)-N-(1-(methylsulfonyl)piperidin-4-yl)quinazolin-2-amine] |
| > 2000 | > 2000 | 200 to 500 | 200 to 500 | > 2000 | > 2000 |  |  |  | CC(=O)N1CCC2(CCN(c3cccc4cnc(Nc5ccc(N6CC7(C6)CC(F)(F)C7)cn5)nc34)C2)C1 (stereo not drawn) [Example 47, 1-(7-(2-((5-(6,6-difluoro-2-azaspiro[3.3]heptan-2-yl)pyridin-2-yl)amino)quinazolin-8-yl)-2,7-diazaspiro[4.4]nonan-2-yl)ethan-1-one] |
| > 2000 | > 2000 | < 200 | < 200 |  |  | 500 to 2000 | > 2000 |  | FC(F)c1cc(N2CCC3(C2)CC3(F)F)c2nc(NC3[C@H]4CNC[C@@H]34)ncc2c1 (stereo partly drawn) [Example 53, 8-(1,1-difluoro-5-azaspiro[2.4]heptan-5-yl)-6-(difluoromethyl)-N-((1R,5S,6s)-3-azabicyclo[3.1.0]hexan-6-yl)quinazolin-2-amine] |
| > 2000 |  | < 200 | < 200 | > 2000 | > 2000 |  |  | 5170 | CC(=O)N1CCC2(CCN(c3cccc4cnc(Nc5ccc(N6CCN(C)CC6)cc5)nc34)C2)C1 (stereo not drawn) [Example 33, 1-(7-(2-((4-(4-methylpiperazin-1-yl)phenyl)amino)quinazolin-8-yl)-2,7-diazaspiro[4.4]nonan-2-yl)ethan-1-one] |
| > 2000 | 500 to 2000 | 200 to 500 | 500 to 2000 | > 2000 | > 2000 |  |  |  | CN1CC2(CCC1=O)CCN(c1cccc3cnc(NC4CCN(S(C)(=O)=O)CC4)nc13)C2 (stereo not drawn) [Example 55, 7-methyl-2-(2-((1-(methylsulfonyl)piperidin-4-yl)amino)quinazolin-8-yl)-2,7-diazaspiro[4.5]decan-8-one] |
| < 200 | < 200 | < 200 | < 200 | 200 to 500 | 500 to 2000 |  |  |  | CS(=O)(=O)N1CCC(Nc2ncc3cccc(C4CCCC4)c3n2)CC1 [Example 1, 8-cyclopentyl-N-(1-(methylsulfonyl)piperidin-4-yl)quinazolin-2-amine] |
| 200 to 500 | < 200 | < 200 | < 200 | 500 to 2000 | 500 to 2000 |  |  |  | CS(=O)(=O)N1CCC(Nc2ncc3cccc(N4CC5(CCS5(=O)=O)C4)c3n2)CC1 [Example 19, 6-(2-((1-(methylsulfonyl)piperidin-4-yl)amino)quinazolin-8-yl)-1-thia-6-azaspiro[3.3]heptane 1,1-dioxide] |
| > 2000 | > 2000 | < 200 | 200 to 500 |  |  | > 2000 | > 2000 |  | CN1C[C@@H]2[C@H](C1)[C@H]2Nc1ncc2cc(C(F)F)cc(N3CCC4(C3)CS(=O)(=O)C4)c2n1 [Example 54, 6-(6-(difluoromethyl)-2-(((1R,5S,6s)-3-methyl-3-azabicyclo[3.1.0]hexan-6-yl)amino)quinazolin-8-yl)-2-thia-6-azaspiro[3.4]octane 2,2-dioxide] |
| 500 to 2000 | < 200 | < 200 | 500 to 2000 | > 2000 | > 2000 |  |  |  | COCCN1CCC2(C1)CN(c1cccc3cnc(NC4CCN(S(C)(=O)=O)CC4)nc13)C2 [Example 39, 8-(6-(2-methoxyethyl)-2,6-diazaspiro[3.4]octan-2-yl)-N-(1-(methylsulfonyl)piperidin-4-yl)quinazolin-2-amine] |
| 500 to 2000 | < 200 | < 200 | < 200 | 500 to 2000 | > 2000 |  |  |  | CS(=O)(=O)N1CCC(Nc2ncc3cccc(N4CCC5(C4)CS(=O)(=O)C5)c3n2)CC1 [Example 4, 6-(2-((1-(methylsulfonyl)piperidin-4-yl)amino)quinazolin-8-yl)-2-thia-6-azaspiro[3.4]octane 2,2-dioxide] |
| 200 to 500 | < 200 | < 200 | < 200 | 500 to 2000 | > 2000 |  |  |  | CC(=O)N1CCC2(CCN(c3cc(C(F)F)cc4cnc(NC5CCN(S(C)(=O)=O)CC5)nc34)C2)C1 (stereo not drawn) [Example 50, 1-(7-(6-(difluoromethyl)-2-((1-(methylsulfonyl)piperidin-4-yl)amino)quinazolin-8-yl)-2,7-diazaspiro[4.4]nonan-2-yl)ethan-1-one] |
| 500 to 2000 | 200 to 500 | 200 to 500 | 200 to 500 | > 2000 | > 2000 |  |  |  | CN1CCC2(C1)CN(c1cccc3cnc(NC4CCN(S(C)(=O)=O)CC4)nc13)C2 [Example 40, 8-(6-methyl-2,6-diazaspiro[3.4]octan-2-yl)-N-(1-(methylsulfonyl)piperidin-4-yl)quinazolin-2-amine] |
| 200 to 500 | < 200 | < 200 | 200 to 500 | 200 to 500 | 500 to 2000 |  |  |  | CS(=O)(=O)N1CCC(Nc2ncc3cccc(N4CCC5(CNC5)C4)c3n2)CC1 [Example 15, N-(1-(methylsulfonyl)piperidin-4-yl)-8-(2,6-diazaspiro[3.4]octan-6-yl)quinazolin-2-amine] |
| 500 to 2000 | < 200 | < 200 | < 200 | > 2000 | > 2000 |  |  |  | CC(=O)N1CCC2(CCN(c3c(F)ccc4cnc(NC5CCN(S(C)(=O)=O)CC5)nc34)C2)C1 (stereo not drawn) [Example 45, 1-(7-(7-fluoro-2-((1-(methylsulfonyl)piperidin-4-yl)amino)quinazolin-8-yl)-2,7-diazaspiro[4.4]nonan-2-yl)ethan-1-one] |
